From article PMC4669759 (Cell Death & Disease, 2015)

How the values were obtained:
BCL-XL = BCL-XL (Homo sapiens, UniProt Q07817); test: TR-FRET binding affinity assay, BCL-XL
Protocol: TR-FRET-binding affinity assays were performed for BCL-2, BCL-XL, and MCL-1 in 4.52 mM monobasic potassium phosphate, 15.48 mM dibasic potassium phosphate, 1 mM sodium EDTA, 0.05% Pluronic F-68 detergent, 50 mM sodium chloride, and 1 mM DTT (pH 7.5) as described previously for BCL-XL.[6] For MCL-1 assays, GST-tagged MCL-1 (1 nM) was mixed with 100 nM f-Bak, 1 nM Tb-labeled anti-GST antibody, and compound at room temperature (RT) for 60 min. Fluorescence was measured on an Envision plate reader (Perkin-Elmer, Waltham, MA, USA) using a 340/35 nm excitation filter and 520/525 (f-Bak) and 495/510 nm (Tb-labeled anti-GST antibody) emission filters.

NOXA = NOXA levels by immunoblotting in HCC-1806 cells; assay type: cell-based; details: 8 h, up to 20 μM
Protocol: (§1) Figure 1 MCL-1 levels are elevated in cancer cells after treatment with MCL-1-binding small molecules. (a) H929 multiple myeloma cells were treated for 4 h with 10 μM A-1210477 before immunopreciptating MCL-1. […] A control H929 lysate was run in lane 1, and an immunoprecipitation with a non-specific antibody (Ig) was run in lane 2. The positions of molecular weight markers (specified in kiloDaltons) are indicated on the left. (b) HCC-1806 breast cancer cells were incubated with increasing concentrations of A-1210477 (0.1, 0.5, 1, 5, 10, 15, or 20 μM) or bortezomib (2, 10, or 50 nM) for 8 h before assessing MCL-1 and NOXA levels by immunoblotting. β-Actin was probed as a protein loading control. The lower graph depicts reverse transcriptase-PCR quantification of MCL1 mRNA from HCC-1806 cells treated for 8 h with similar concentrations of A-1210477. (c) HCC-1806 cells were incubated with increasing concentrations (0.1, 0.5, 1, 5, 10, and 20 μM) of A-954248, A-962653, or A-1248767 for 24 h before assessing MCL-1 and BCL-XL levels by immunoblotting. β-Actin was probed as a protein loading control
Cells were scraped into cold PBS, pelleted, and then resuspended in 100–200 μl ice-cold insect cell lysis buffer supplemented with protease inhibitors (BD Biosciences Pharmingen, San Diego, CA, USA). Cells were lysed by sonication, and the debris was cleared in a microcentrifuge. […]

MCL1 mRNA = MCL1 mRNA by reverse transcriptase-PCR in HCC-1806 cells; assay type: cell-based; details: 8 h
Protocol: as §1

H929 cells = test: Cell viability, H929 cells; assay type: cell-based, human; details: H929, 48 h
Protocol: Figure 4 Indole-2-carboxylic acids induce the hallmarks of apoptosis in MCL-1-dependent cancer cell line H929. (a) Digitonin-permeabilized H929 cells were treated with 10 μM BH3 peptides for 4 h, and intact H929 cells were incubated with increasing concentrations (0.1–10 μM) of A-1208746 for 4 h before assessing the levels of cytochrome c released into the cytosol. (b) H929 and RS4;11 cells were incubated with increasing concentrations of MCL-1 inhibitors or the BCL-2-selective inhibitor ABT-199 (venetoclax) for 48 h before determining cell viability. Cell killing IC50s are plotted with each value representing the mean of three separate experiments. Error bars represent the S.E.M. (c) H929 cells were incubated with increasing concentrations of MCL-1 inhibitors in the presence or absence of the pan-caspase inhibitor QVD (100 μM) for 4 h before assessing caspase-3/-7 activation, mitochondrial membrane polarization, and the exposure of phosphatidylserine. […]
Adherent cell lines were seeded at 50 000 cells per well in 96-well plates and treated for 48 h with compounds diluted in half-log steps starting at 30 μM and ending at 0.001 μM. […] Effects on proliferation and viability were determined using CellTiter-Glo reagent from Promega (Madison, WI, USA) according to the manufacturer's instructions. IC50 values were determined by non-linear regression analysis of the concentration response data.

H2110 cells = test: Cell viability, H2110 cells; assay type: cell-based, human
Protocol: Figure 5 A-1210477 kills MCL-1-dependent NSCLC cancer cell lines. NSCLC cell lines (a) H2110 or (c) H23 were transfected with a construct expressing the MCL1 CDS tagged with a Flag epitope or empty control vector. These cells were subsequently transfected with siRNAs targeting the MCL1 CDS, the MCL1 3′ UTRa or UTRb, or a scrambled control sequence. Cell viability was assessed 72 h later with MCL-1 and Flag immunoblots performed in parallel. (b) H2110 or (d) H23 cells were treated with increasing concentrations of A-1210477 for 72 h before assessing cell viability.
Adherent cell lines were seeded at 50 000 cells per well in 96-well plates and treated for 48 h with compounds diluted in half-log steps starting at 30 μM and ending at 0.001 μM. Multiple myeloma cell lines were seeded at 15 000–20 000 cells per well and treated similarly. Effects on proliferation and viability were determined using CellTiter-Glo reagent from Promega (Madison, WI, USA) according to the manufacturer's instructions. IC50 values were determined by non-linear regression analysis of the concentration response data.

[1] = parameters: method as in PMID 25679114; details: cited from earlier work

Chain of BCL-XL (Q07817 whole entry): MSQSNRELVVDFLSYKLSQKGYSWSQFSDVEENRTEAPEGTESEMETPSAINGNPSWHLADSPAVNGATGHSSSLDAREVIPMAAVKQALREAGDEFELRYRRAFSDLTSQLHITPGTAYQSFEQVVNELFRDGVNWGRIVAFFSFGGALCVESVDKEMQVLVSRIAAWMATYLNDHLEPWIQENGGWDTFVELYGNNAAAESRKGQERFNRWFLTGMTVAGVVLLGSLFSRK

Compound: Cc1nn(C)c(COc2ccc(N3CCN(S(=O)(=O)N(C)C)CC3)cc2)c1-c1cccc2c(CCCOc3cccc4ccccc34)c(C(=O)O)n(CCN3CCOCC3)c12 [A-1210477]
- Ki (BCL-XL): > 0.66 µM
- effect on NOXA levels (NOXA): no effect
- effect on MCL1 mRNA (MCL1 mRNA): No corresponding increase in MCL1 mRNA
- cell killing IC50 (H929 cells): low-μM range
- IC50 (H2110 cells; H2110): < 10 µM
- EC50 (H2110 cells; H2110, 72 h): 5.3 µM
- human protein binding [1]: > 99%
